The compounds below were run against GMPPNP-loaded KRAS G12C (Homo sapiens, UniProt P01116, G12C) (assay: KRAS G12C RAF Disruption Assay (HTRF)). Settings: recombinant GMPPNP-loaded KRAS G12C (5 nM), 20 min with compound; GST-RAF1 RBD (9 nM); HTRF signal; read-out: KRASG12C RAF Disruption Assay (IC50).
Format: biochemical
In short: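 The read-out is an HTRF 520/495 emission ratio, with IC50 taken from dose-response curves. Compound was first incubated for 20 min at room temperature with active-state KRAS G12C (GMPPNP, 5 nM) in Tris pH 7.5/NaCl/MgCl2/DTT/BSA. RAF1 RBD-GST (9 nM, 20 min) and SA-Tb (0.25 nM, 3 h) were added in turn.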

Compound	IC50 [nM]
C#Cc1c(F)ccc2cc(O)cc(-c3ncc4c(N5C[C@H]6CC[C@@H](C5)N6C(=O)/C(F)=C/c5nccn5C)nc(OC[C@@]56CCCN5C[C@H](F)C6)nc4c3F)c12 [Compound 5, (Z)-1-((1R, 5S)-3-(7-(8-ethynyl-7-fluoro-3-hydroxynaphthalen-1-yl)-8-fluoro-2-(((2R, 7aS)-2-fluorotetrahydro-1H-pyrrolizin-7a(5H)-yl)methoxy)pyrido[4,3-d]pyrimidin-4-yl)-3,8-diazabicyclo[3.2.1]octan-8-yl)-2-fluoro-3-(1-methyl-1H-imidazol-2-yl)prop-2-en-1-one]	79
C#Cc1cccc2cccc(-c3ncc4c(N5CC6(CCN(C(=O)/C(F)=C/c7ccccn7)CC6)C5)nc(OC[C@@]56CCCN5C[C@H](F)C6)nc4c3F)c12 [Compound 91, (Z)-1-(2-(7-(8-ethynylnaphthalen-1-yl)-8-fluoro-2-(((2R, 7aS)-2-fluorotetrahydro-1H-pyrrolizin-7a(5H)-yl)methoxy)pyrido[4,3-d]pyrimidin-4-yl)-2,7-diazaspiro[3.5]nonan-7-yl)-2-fluoro-3-(pyridin-2-yl)prop-2-en-1-one]	5000
N#Cc1cccc2[nH]cc(-c3ncc4c(N5CCN(C(=O)/C(F)=C/c6nccs6)CC5)nc(OC[C@@]56CCCN5C[C@H](F)C6)nc4c3F)c12 [Compound 134, 3-(8-fluoro-4-(4-((Z)-2-fluoro-3-(thiazol-2-yl)acryloyl)piperazin-1-yl)-2-(((2R, 7aS)-2-fluorotetrahydro-1H-pyrrolizin-7a(5H)-yl)methoxy)pyrido[4,3-d]pyrimidin-7-yl)-1H-indole-4-carbonitrile]	970
N#Cc1c(N)sc2c(F)ccc(-c3ncc4c(N5CCN(C(=O)/C(F)=C/c6nccs6)CC5)nc(OC[C@@]56CCCN5C[C@H](F)C6)nc4c3F)c12 [Compound 122, 2-amino-7-fluoro-4-(8-fluoro-4-(4-((Z)-2-fluoro-3-(thiazol-2-yl)acryloyl)piperazin-1-yl)-2-(((7aS)-2-fluorotetrahydro-1H-pyrrolizin-7a(5H)-yl)methoxy)pyrido[4,3-d]pyrimidin-7-yl)benzo[b]thiophene-3-carbonitrile]	6
2-((S)-4-(8-fluoro-2-(((S)-1-methylpyrrolidin-2-yl)methoxy)-7-(naphthalen-1-yl)pyrido[4,3-d]pyrimidin-4-yl)-1-((Z)-2-fluoro-3-(pyridin-2-yl)acryloyl)piperazin-2-yl)acetonitrile [Compound 21B]	330
C#Cc1c(F)ccc2cccc(-c3ncc4c(N(C)[C@@H]5CCN(C(=O)/C(F)=C/c6ccccn6)C5)nc(OC[C@@]56CCCN5C[C@H](F)C6)nc4c3F)c12 [Compound 117, (Z)-1-((R)-3-((7-(8-ethynyl-7-fluoronaphthalen-1-yl)-8-fluoro-2-(((2R, 7aS)-2-fluorotetrahydro-IH-pyrrolizin-7a(5H)-yl)methoxy)pyrido[4,3-d]pyrimidin-4-yl)(methyl)amino)pyrrolidin-1-yl)-2-fluoro-3-(pyridin-2-yl)prop-2-en-1-one]	9
Cn1ncc2cccc(-c3ncc4c(N5CCN(C(=O)/C(F)=C/c6ccccn6)[C@@H](CC#N)C5)nc(OC[C@@]56CCCN5C[C@H](F)C6)nc4c3F)c21 [Example 51, 2-((S)-4-(8-fluoro-2-(((2R, 7aS)-2-fluorotetrahydro-1H-pyrrolizin-7a(5H)-yl)methoxy)-7-(1-methyl-1H-indazol-7-yl)pyrido[4,3-d]pyrimidin-4-yl)-1-((Z)-2-fluoro-3-(pyridin-2-yl)acryloyl)piperazin-2-yl)acetonitrile]	360
C#Cc1cccc2cccc(-c3ncc4c(N5CCN(C(=O)/C(F)=C/c6ncccn6)CC5)nc(OC[C@@]56CCCN5C[C@H](F)C6)nc4c3F)c12 [Compound 123, (Z)-1-(4-(7-(8-ethynylnaphthalen-1-yl)-8-fluoro-2-(((2R, 7aS)-2-fluorotetrahydro-1H-pyrrolizin-7a(5H)-yl)methoxy)pyrido[4,3-d]pyrimidin-4-yl)piperazin-1-yl)-2-fluoro-3-(pyrimidin-2-yl)prop-2-en-1-one]	187
C#Cc1cccc2cccc(-c3ncc4c(N5CCN(C(=O)/C(F)=C/c6ccccn6)CC5)nc(OC[C@@H]5CCCN5C)nc4c3F)c12 [Example 25, (S,Z)-1-(4-(7-(8-ethynylnaphthalen-1-yl)-8-fluoro-2-((1-methylpyrrolidin-2-yl)methoxy)pyrido[4,3-d]pyrimidin-4-yl)piperazin-1-yl)-2-fluoro-3-(pyridin-2-yl)prop-2-en-1-one]	290
C#Cc1c(F)ccc2cc(O)cc(-c3ncc4c(N5CCN(C(=O)/C(F)=C/c6ncccn6)C[C@@H]5C)nc(OC[C@@]56CCCN5C[C@H](F)C6)nc4c3F)c12 [Example 66, (Z)-1-((S)-4-(7-(8-ethynyl-7-fluoro-3-hydroxynaphthalen-1-yl)-8-fluoro-2-(((2R, 7aS)-2-fluorotetrahydro-1H-pyrrolizin-7a(5H)-yl)methoxy)pyrido[4,3-d]pyrimidin-4-yl)-3-methylpiperazin-1-yl)-2-fluoro-3-(pyrimidin-2-yl)prop-2-en-1-one]	< 2
C#Cc1cccc2cccc(-c3ncc4c(N(C)[C@H]5CN(C(=O)/C(F)=C/c6cnccn6)C[C@H]5F)nc(OC[C@@]56CCCN5C[C@H](F)C6)nc4c3F)c12 [Compound 130, (Z)-1-((3S,4R)-3-((7-(8-ethynylnaphthalen-1-yl)-8-fluoro-2-(((2R, 7aS)-2-fluorotetrahydro-1H-pyrrolizin-7a(5H)-yl)methoxy)pyrido[4,3-d]pyrimidin-4-yl)(methyl)amino)-4-fluoropyrrolidin-1-yl)-2-fluoro-3-(pyrazin-2-yl)prop-2-en-1-one]	60
C#Cc1c(F)c(F)cc2cccc(-c3ncc4c(N5CCN(C(=O)/C(F)=C/c6ccccn6)CC5)nc(OC[C@@]56CCCN5C[C@H](F)C6)nc4c3F)c12 [Compound 99, (Z)-1-(4-(7-(8-ethynyl-6,7-difluoronaphthalen-1-yl)-8-fluoro-2-(((2R, 7aS)-2-fluorotetrahydro-IH-pyrrolizin-7a(5H)-yl)methoxy)pyrido[4,3-d]pyrimidin-4-yl)piperazin-1-yl)-2-fluoro-3-(pyridin-2-yl)prop-2-en-1-one]	70
C#Cc1cccc2cccc(-c3ncc4c(N5CCC6C5CCN6C(=O)/C(F)=C/c5ccccn5)nc(OC[C@@]56CCCN5C[C@H](F)C6)nc4c3F)c12 (single isomer, unassigned) [Compound 108]	4300
C#Cc1cccc2c(F)ccc(-c3ncc4c(N5CCN(C(=O)/C(F)=C/c6ccccn6)CC5)nc(OC[C@@]56CCCN5C[C@H](F)C6)nc4c3F)c12 [Compound 87, (Z)-1-(4-(7-(8-ethynyl-4-fluoronaphthalen-1-yl)-8-fluoro-2-(((2R, 7aS)-2-fluorotetrahydro-1H-pyrrolizin-7a(5H)-yl)methoxy)pyrido[4,3-d]pyrimidin-4-yl)piperazin-1-yl)-2-fluoro-3-(pyridin-2-yl)prop-2-en-1-one]	1600
C#Cc1cccc2cccc(-c3ncc4c(N(C)C5CCN(C(=O)/C(F)=C/c6nccs6)C5C)nc(OC[C@@]56CCCN5C[C@H](F)C6)nc4c3F)c12 (single isomer, unassigned) [Example 73 cis isomer 2]	1800
